Measured values as given in PubChem BioAssay (NCI).
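All cell lines were grown in 96-well plates and treated with compound for 48 hours. TGI marks complete inhibition of growth.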

What was measured:
Assay in all cases: NCI tumour cell line growth inhibition, 48 h
[1] = system: PC-3 prostate
[2] = system: HCC-2998 colon
[3] = system: K-562 leukemia
[4] = system: RXF 393 renal
[5] = system: HCT-15 colon
[6] = system: SF-539 CNS
[7] = system: KM12 colon
[8] = system: RPMI-8226 leukemia
[9] = system: OVCAR-5 ovarian
[10] = system: EKVX NSCLC
[11] = system: OVCAR-3 ovarian
[12] = system: LOX IMVI melanoma
[13] = system: IGROV1 ovarian
[14] = system: A549 NSCLC
[15] = system: SNB-19 CNS
[16] = system: SK-MEL-2 melanoma
[17] = system: SK-OV-3 ovarian
[18] = system: SK-MEL-28 melanoma
[19] = system: COLO 205 colon
[20] = system: OVCAR-8 ovarian
[21] = system: 786-0 renal
[22] = system: CAKI-1 renal
[23] = system: HT29 colon
[24] = system: SF-295 CNS
[25] = system: T-47D breast
[26] = system: MALME-3M melanoma
[27] = system: ACHN renal
[28] = system: UO-31 renal
[29] = system: TK-10 renal
[30] = system: NCI-H460 lung
[31] = system: BT-549 breast
[32] = system: UACC-62 melanoma
[33] = system: M14 melanoma
[34] = system: OVCAR-4 ovarian
[35] = system: MOLT-4 leukemia
[36] = system: SR leukemia
[37] = system: NCI/ADR-RES ovarian
[38] = system: MDA-MB-435
[39] = system: NCI-H23 lung
[40] = system: U251 CNS
[41] = system: SN12C renal
[42] = system: HCT-116 colon
[43] = system: HS 578T breast
[44] = system: MCF7 breast
[45] = system: SK-MEL-5 melanoma
[46] = system: HOP-62 NSCLC
[47] = system: SF-268 CNS
[48] = system: SNB-75 CNS
[49] = system: NCI-H522 lung
[50] = system: DU-145 prostate
[51] = system: CCRF-CEM leukemia
[52] = system: MDA-MB-231 breast
[53] = system: HL-60(TB) leukemia
[54] = system: MDA-N
[55] = system: UACC-257 melanoma
[56] = system: SW-620 colon
[57] = system: NCI-H226 lung
[58] = system: HOP-92 NSCLC

Measured: TGI

COc1cc([C@H]2CC(=O)C[C@@H](c3cc(OC)c(OC)c(OC)c3)C23C(=O)c2ccccc2C3=O)cc(OC)c1OC
> 100 µM: all assays above

CCCC(=O)NC(C(=O)OCC)(N1CCOCC1)C(F)(F)F (stereo not given)
not listed: [30]
> 100 µM: all other assays above
